Like-named read-outs stand apart in the source and are kept apart here.
Columns and labels:
[1] = test system: Brevibacterium lactofermentum CJJA22; test: α-Aminobutyric acid resistance: growth on minimal medium containing α-aminobutyric acid; type: cell-based; conditions: strain printed CJJA21; α-aminobutyric acid 20 g/l; cultivation at 30° C. for 6 days
[2] = test system: Brevibacterium lactofermentum KFCC-10680; test: as above; type: cell-based; conditions: strain KFCC-10680, cultivation at 30° C. for 6 days
[3] = test system: Brevibacterium lactofermentum CJJA21; conditions: strain CJJA21; sodium azide 800 mg/l; cultivation at 30° C. for 6 days
[4] = test system: Brevibacterium lactofermentum KFCC-10680; conditions: strain KFCC-10680, cultivation at 30° C. for 6 days

Structure (SMILES)	growth [1]	growth ([2]; α-aminobutyric acid 5 g/l)	growth ([2]; α-aminobutyric acid 10 g/l)	growth ([2]; α-aminobutyric acid 15 g/l)	growth ([2]; α-aminobutyric acid 20 g/l)	growth [3]	growth ([4]; sodium azide 100 mg/l)	growth ([4]; sodium azide 200 mg/l)	growth ([4]; sodium azide 300 mg/l)	growth ([4]; sodium azide 500 mg/l)	growth ([4]; sodium azide 800 mg/l)
CCC(N)C(=O)O (racemic) [α-aminobutyric acid, D,L-α-amino-n-butyric acid]	−	+	−	−	−						
[N-]=[N+]=[N-] [Sodium azide, sodium azide]						−	+	+	−	−	−

— patent US7192760B2 (priority 2000, dated 2007)
